Experimental data as given in DBAASP.
Converted amounts (≈) assume the structure as drawn.

Assays:
Experiment in all cases: ≥ marks a high value that may be exact or a test limit, other limits are often not marked, values filed in µg/mL are converted to µM
[1] = system: Escherichia coli NCTC 10418
[2] = system: Staphylococcus aureus NCTC 10788
Staphylococcus aureus = system: Staphylococcus aureus
Escherichia coli = system: Escherichia coli
Bacillus cereus = system: Bacillus cereus
[3] = system: Escherichia coli ATCC 25922
[4] = system: Staphylococcus aureus ATCC 25923
[5] = system: Candida albicans ATCC 2002
[6] = system: Pseudomonas aeruginosa CMCCB 10104
Escherichia coli UB1005 = system: Escherichia coli UB1005
[7] = system: Enterococcus faecalis ATCC 29212
[8] = system: Salmonella enterica subsp. enterica serovar Typhimurium C77-31
[9] = system: Salmonella enterica subsp. enterica serovar Typhimurium ATCC 14028
[10] = system: Pseudomonas aeruginosa ATCC 27853
[11] = system: Salmonella enterica subsp. enterica serovar Pullorum C79-13
[12] = system: Staphylococcus epidermidis ATCC 12228
Bacillus subtilis 168 = system: Bacillus subtilis 168
[13] = system: Staphylococcus aureus ATCC 29213

CC[C@H](C)[C@H](NC(=O)CNC(=O)[C@H](CO)NC(=O)[C@H](CC(C)C)NC(=O)[C@H](Cc1cnc[nH]1)NC(=O)[C@@H]1CCCN1C(=O)[C@H](CC(C)C)NC(=O)[C@H](CC(C)C)NC(=O)[C@H](CCC(=O)O)NC(=O)[C@H](CCCCN)NC(=O)[C@@H](NC(=O)[C@@H](N)Cc1ccccc1)[C@@H](C)CC)C(=O)N[C@H](C(=O)N[C@@H](CC(=O)O)C(=O)N[C@@H](CO)C(=O)N[C@H](C(=O)N[C@@H](C)C(=O)N[C@@H](CC(N)=O)C(=O)N[C@@H](C)C(=O)N[C@H](C(=O)N[C@@H](CCCCN)C(N)=O)[C@@H](C)CC)C(C)C)[C@@H](C)CC [FIKELLPHLSGIIDSVANAIK]
MIC [1]: ≥ 110 µM
MIC [2]: ≥ 55 µM

CC(C)C[C@H](NC(=O)[C@@H](N)Cc1ccccc1)C(=O)NCC(=O)N[C@H](C(=O)N[C@H](C(=O)N[C@@H](Cc1ccccc1)C(=O)N[C@@H](CCCCN)C(=O)N[C@@H](CCCCN)C(=O)N[C@@H](C)C(=O)N[C@@H](CO)C(=O)N[C@@H](CCCCN)C(=O)N[C@H](C(=O)N[C@@H](Cc1ccccc1)C(=O)N1CCC[C@H]1C(=O)N[C@@H](C)C(=O)N[C@H](C(=O)N[C@@H](Cc1ccccc1)C(=O)N[C@@H](CCCCN)C(=O)N[C@@H](CCCCN)C(=O)N[C@H](C(=O)O)C(C)C)C(C)C)C(C)C)C(C)C)C(C)C [FLGVVFKKASKVFPAVFKKV]
MIC (Staphylococcus aureus): > 114 µM
MIC (Escherichia coli): 114 µM (≈ 256 µg/mL)
MIC (Bacillus cereus): ≥ 114 µM

CC(C)C[C@H](NC(=O)[C@H](CCCCN)NC(=O)[C@H](Cc1ccccc1)NC(=O)[C@@H](NC(=O)[C@@H](NC(=O)CNC(=O)[C@H](CC(C)C)NC(=O)[C@@H](N)Cc1ccccc1)C(C)C)C(C)C)C(=O)N[C@@H](C)C(=O)N[C@@H](CO)C(=O)N[C@@H](CCCCN)C(=O)N[C@H](C(=O)N[C@@H](Cc1ccccc1)C(=O)NCC(=O)N[C@@H](C)C(=O)N[C@H](C(=O)N[C@@H](Cc1ccccc1)C(=O)N[C@@H](CCCCN)C(=O)N[C@@H](CCCCN)C(=O)N[C@H](C(=O)O)C(C)C)C(C)C)C(C)C [FLGVVFKLASKVFGAVFKKV]
MIC (Staphylococcus aureus): 3.66 µM (≈ 8 µg/mL)
MIC (Escherichia coli): 117 µM (≈ 256 µg/mL)
MIC (Bacillus cereus): 3.66 µM (≈ 8 µg/mL)

CC[C@H](C)[C@@H]1NC(=O)[C@H](CCCCN)NC(=O)[C@@H](NC(=O)[C@H](CCCCN)NC(=O)[C@H](CC(C)C)NC(=O)[C@H](CC(N)=O)NC(=O)[C@H](CC(=O)O)NC(=O)[C@H](CC(C)C)NC(=O)[C@H](CC(C)C)NC(=O)[C@@H](NC(=O)[C@@H](NC(=O)[C@H](CC(=O)O)NC(=O)[C@H](CCSC)NC(=O)[C@H](CC(N)=O)NC(=O)[C@H](CCCCN)NC(=O)[C@H](C)NC(=O)[C@@H](NC(=O)[C@H](CC(N)=O)NC(=O)[C@H](CCCCN)NC(=O)[C@H](C)NC(=O)[C@@H](NC(=O)[C@H](C)NC(=O)[C@H](CCSC)NC(=O)[C@H](Cc2ccccc2)NC(=O)CN)[C@@H](C)O)C(C)C)C(C)C)[C@@H](C)O)CSSC[C@@H](C(=O)O)NC(=O)[C@H](C)NC(=O)[C@H](CCCCN)NC(=O)[C@H]([C@@H](C)O)NC1=O [GFMATAKNVAKNMDVTLLDNLKCKITKAC]
MIC [3]: 2.61 µM (≈ 8.2 µg/mL)
MIC [4]: 1.3 µM (≈ 4.1 µg/mL)
MIC [5]: 1.3 µM (≈ 4.1 µg/mL)
MIC [6]: 1.3 µM (≈ 4.1 µg/mL)

CC[C@H](C)[C@@H]1NC(=O)[C@H](CCCCN)NC(=O)[C@@H](NC(=O)[C@H](CCCCN)NC(=O)[C@H](CC(C)C)NC(=O)[C@H](CC(N)=O)NC(=O)[C@H](CC(=O)O)NC(=O)[C@H](CC(C)C)NC(=O)[C@H](CC(C)C)NC(=O)[C@H](CC(N)=O)NC(=O)CNC(=O)[C@H](C)NC(=O)[C@H](CCC(=O)O)NC(=O)[C@H](CC(N)=O)NC(=O)[C@H](CCCCN)NC(=O)[C@H](C)NC(=O)[C@@H](NC(=O)[C@H](CC(N)=O)NC(=O)[C@H](CCCCN)NC(=O)[C@H](C)NC(=O)[C@@H](NC(=O)[C@H](CC(=O)O)NC(=O)[C@H](CCSC)NC(=O)[C@H](Cc2ccccc2)NC(=O)CN)[C@@H](C)O)C(C)C)CSSC[C@@H](C(=O)O)NC(=O)[C@H](C)NC(=O)[C@H](CCCCN)NC(=O)[C@H]([C@@H](C)O)NC1=O [GFMDTAKNVAKNEAGNLLDNLKCKITKAC]
MIC [3]: 4.05 µM (≈ 12.6 µg/mL)
MIC [4]: 2.02 µM (≈ 6.3 µg/mL)
MIC [5]: 2.02 µM (≈ 6.3 µg/mL)
MIC [6]: 4.05 µM (≈ 12.6 µg/mL)

CC[C@H](C)[C@H](NC(=O)[C@H](CC(C)C)NC(=O)CN)C(=O)N[C@@H](CC(=O)O)C(=O)N[C@H](C(=O)N[C@H](C(=O)N[C@@H](CCCCN)C(=O)N[C@@H](CC(N)=O)C(=O)N[C@@H](CCSC)C(=O)N[C@@H](C)C(=O)N[C@@H](CC(C)C)C(=O)N[C@@H](CC(N)=O)C(=O)N[C@@H](C)C(=O)N[C@@H](C)C(=O)N[C@@H](CCCCN)C(=O)N[C@@H](CO)C(=O)N[C@@H](C)C(=O)NCC(=O)N[C@H](C(=O)N[C@@H](CO)C(=O)N[C@H](C(=O)N[C@@H](CC(C)C)C(=O)N[C@@H](CC(N)=O)C(=O)N[C@H](C(=O)N[C@@H](CC(C)C)C(=O)N[C@@H](CO)C(=O)N[C@H]1CSSC[C@@H](C(=O)O)NC(=O)[C@H]([C@@H](C)O)NC(=O)[C@H](CCCCN)NC(=O)[C@H](CO)NC(=O)[C@H](CC(C)C)NC(=O)[C@H](CCCCN)NC1=O)[C@@H](C)O)C(C)C)C(C)C)[C@@H](C)CC)[C@@H](C)O [GLIDTIKNMALNAAKSAGVSVLNTLSCKLSKTC]
MIC [3]: 6.12 µM (≈ 20.6 µg/mL)
MIC [4]: 6.12 µM (≈ 20.6 µg/mL)
MIC [5]: 3.06 µM (≈ 10.3 µg/mL)
MIC [6]: 12.2 µM (≈ 41.2 µg/mL)

CC[C@H](C)[C@H](NC(=O)[C@H](CC(C)C)NC(=O)[C@H](CC(C)C)NC(=O)[C@H](CC(N)=O)NC(=O)[C@H](CCCCN)NC(=O)[C@@H](NC(=O)[C@@H](NC(=O)[C@H](C)NC(=O)[C@H](CC(C)C)NC(=O)[C@@H](NC(=O)CN)C(C)C)[C@@H](C)O)C(C)C)C(=O)NCC(=O)N[C@H](C(=O)NCC(=O)N[C@@H](CC(=O)O)C(=O)NCC(=O)N[C@@H](C)C(=O)N[C@@H](C)C(=O)N[C@@H](CCC(N)=O)C(=O)N[C@@H](CO)C(=O)N[C@H](C(=O)N[C@@H](CC(C)C)C(=O)N[C@@H](CCCCN)C(=O)N[C@H](C(=O)N[C@@H](CC(C)C)C(=O)N[C@@H](CO)C(=O)N[C@H]1CSSC[C@@H](C(=O)O)NC(=O)[C@H](CC(=O)O)NC(=O)[C@H](CC(N)=O)NC(=O)[C@H](CO)NC(=O)[C@H](CC(C)C)NC(=O)[C@H](CCCCN)NC1=O)[C@@H](C)O)C(C)C)[C@@H](C)O [GVLATVKNLLIGTGDGAAQSVLKTLSCKLSNDC]
MIC [3]: 3.4 µM (≈ 11.2 µg/mL)
MIC [4]: 6.81 µM (≈ 22.4 µg/mL)
MIC [5]: 3.4 µM (≈ 11.2 µg/mL)
MIC [6]: 13.6 µM (≈ 44.8 µg/mL)

CC[C@H](C)[C@H](NC(=O)[C@H](CCCCN)NC(=O)[C@H](CCCCN)NC(=O)[C@H](Cc1ccccc1)NC(=O)[C@H](CC(C)C)NC(=O)[C@H](CCCCN)NC(=O)[C@H](Cc1c[nH]c2ccccc12)NC(=O)[C@@H](N)CCCCN)C(=O)N[C@@H](Cc1c[nH]c2ccccc12)C(=O)N[C@@H](Cc1c[nH]c2ccccc12)C(=O)N1CCC[C@H]1C(=O)N[C@@H](Cc1ccccc1)C(=O)N[C@@H](CC(C)C)C(=O)N[C@@H](CCCN=C(N)N)C(=O)N[C@@H](CCCN=C(N)N)C(N)=O [KWKLFKKIWWPFLRR]
MIC (Escherichia coli UB1005): 4 µM (≈ 8.53 µg/mL)
MIC [7]: 2 µM (≈ 4.26 µg/mL)
MIC [8]: 2 µM (≈ 4.26 µg/mL)
MIC [9]: 4 µM (≈ 8.53 µg/mL)
MIC [10]: 4 µM (≈ 8.53 µg/mL)
MIC [11]: 4 µM (≈ 8.53 µg/mL)
MIC [12]: 2 µM (≈ 4.26 µg/mL)

CC[C@H](C)[C@H](NC(=O)[C@H](CS)NC(=O)[C@H](CCSC)NC(=O)[C@H](CS)NC(=O)[C@H](CCCN=C(N)N)NC(=O)[C@@H](N)CC(C)C)C(=O)N[C@@H](CCCCN)C(=O)N[C@@H](Cc1c[nH]c2ccccc12)C(=O)N[C@@H](Cc1c[nH]c2ccccc12)C(=O)N[C@@H](CO)C(=O)NCC(=O)N[C@@H](CCCCN)C(=O)N[C@@H](Cc1cnc[nH]1)C(=O)N1CCC[C@H]1C(=O)N[C@@H](CCCCN)C(=O)O [LRCMCIKWWSGKHPK]
MIC (Bacillus subtilis 168): 7 µM (≈ 13.1 µg/mL)

CC[C@H](C)[C@H](NC(=O)[C@@H]1CCCN1C(=O)[C@@H]1CCCN1)C(=O)N[C@H](C(=O)NCC(=O)N[C@@H](CO)C(=O)N[C@H](C(=O)N1CCC[C@H]1C(=O)N[C@@H](CC(C)C)C(=O)NCC(=O)N[C@@H](CS)C(=O)NCC(N)=O)[C@@H](C)CC)C(C)C [PPIVGSIPLGCG]
MIC (Escherichia coli UB1005): ≥ 128 µM
MIC [8]: ≥ 128 µM
MIC [13]: > 128 µM
MIC [3]: > 128 µM
MIC [4]: > 128 µM
MIC [12]: > 128 µM
